One data set relates to P. aeruginosa ATCC 27853. The data set can be described thus: Antibacterial activity (MIC, broth dilution). As to conditions: CLSI. It is filed as cell-based. The procedure: (§1) Determination of the Minimal Inhibitory Concentrations (MIC) by dilution was carried out by broth dilution according to CLSI standards.
The subject of data set [1] is K. pneumoniae NR-15410 (KPC). The experiment in a line: Antibacterial activity (MIC, broth dilution). In kind it is cell-based. As to conditions: CLSI. The procedure:
as §1

For the next data set, the system named is E. faecium F118 (VRE). The data set can be described thus: Antibacterial activity (MIC, broth dilution). In kind it is cell-based. As to conditions: CLSI, in µg/mL. The procedure: as §1
In data set [2] the test system is K. pneumoniae NR-15411 (KPC). The experiment in a line: Antibacterial activity (MIC, broth dilution). In kind it is cell-based. As to conditions: CLSI. The procedure: as §1
The test system of a further data set is P. aeruginosa PA01. The experiment in a line: Antibacterial activity (MIC, broth dilution). In kind it is cell-based. To be noted: CLSI. As to the method: as §1
Another data set concerns E. aerogenes ATCC 13048. The data set can be described thus: Antibacterial activity (MIC, broth dilution). In kind it is cell-based. To be noted: CLSI. The procedure: as §1
A further data set deals with E. faecium EF1509 (VRE). The experiment in a line: Antibacterial activity (MIC, broth dilution). As to conditions: CLSI, in µg/mL. In kind it is cell-based. The procedure: as §1
A further data set deals with P. aeruginosa X13273. The data set can be described thus: Antibacterial activity (MIC, broth dilution). In kind it is cell-based. To be noted: CLSI, in µg/mL. The procedure: as §1
The test system of another data set is S. aureus MRSA 1094. The data set can be described thus: Antibacterial activity (MIC, broth dilution). In kind it is cell-based. To be noted: CLSI. As to the method:
as §1

Data set [3] has as its system S. aureus HFH-30123 (MRSA). The experiment in a line: Antibacterial activity (MIC, broth dilution). In kind it is cell-based. As to conditions: CLSI. As to the method: as §1
For a further data set, the system named is E. cloacae ATCC 13047. The data set can be described thus: Antibacterial activity (MIC, broth dilution). In kind it is cell-based. To be noted: CLSI. The procedure:
as §1

The test system of a further data set is HeLa cells. The data set can be described thus: Cytotoxicity against mammalian cells (MTS assay). It is filed as cell-based. As to the method:
The cytotoxicity concentration of antibacterial compounds that produces half maximal decrease in viability (CC50) against mammalian cells (HeLa, ATCC CCL-2.2) was determined as described. The effect of compounds on HeLa cell viability was assessed in triplicate by measuring the mitochondrial activity using MTS assays according to the manufacturer’s instructions (Cell Titer 96 proliferation assay, Promega). The cells were incubated for 72 hours in RPMI1640 medium containing the compounds at final concentrations ranging from 64 to 0.125 μg/ml. CC50 was determined using a standard curve of serially diluted untreated cells in each experiment.

Data set [4] can be described thus: Lipid II binding by Surface Plasmon Resonance. As to conditions: SPR, immobilized 3-Lipid II, 25°C. The procedure:
Short-chain water-soluble Lipid II containing a lipid tail of three isoprene units was generated and purified essentially as described. Typically, M. flavus vesicles (120 μmol lipid-Pi) were incubated together with 500 μmol UDP-GlcNAc, 500 μmol UDP-MurNAC-pentapeptide and 400 μmol farnesyl phosphate in 100 mM Tris-HCl pH 8.0, 5 mM MgCl2. The incubation lasted two hours at room temperature for 3-P. The synthesis of 3-Lipid II was followed using RP-8 reversed phase TLC (Merck) developed in 75% methanol. For purification, the membranes were removed by centrifugation at 40,000 x g and the supernatant was collected and loaded on a C18 HPLC column and eluted with a linear gradient from 50 mM ammonium bicarbonate to 100% methanol in 30 minutes. Farnesyl-Lipid II (3-Lipid II) eluted at approximately 60% methanol. Its identity was confirmed by mass spectroscopy. Surface Plasmon Resonance binding experiments were carried out on a BIAcore T100 system (BIAcore Inc., Piscataway, NY) at 25°C. The assay buffer was 10 mM HEPES, 150 mM NaCl, 0.05% surfactant P20, pH 7.4 (± 3 mM EDTA) supplemented with 10% DMSO. 3-Lipid II (50 RUs) was immobilized on CM5 sensor chips using the amine-coupling chemistry recommended by the manufacturer. For initial determination of binding, compounds were introduced into the flow-cells (30 μl/min) in the running buffer at 10 μM. Resonance signals were corrected for nonspecific binding by subtracting the background of the control flow-cell. After each analysis, the sensor chip surfaces were regenerated with 50 mM NaOH for 30 s at a flow rate 100 μl/min, and equilibrated with the buffer prior to next injection. For binding kinetics studies, binding isotherms were analyzed with manufacturer-supplied software for BIAcore T100.

Another data set relates to A. baumanii ATCC 19606. The experiment in a line: Antibacterial activity (MIC, broth dilution). In kind it is cell-based, Acinetobacter baumanii. As to conditions: CLSI, in µg/mL.
Description: Staphylococcus aureus ATCC 29213, Escherichia coli ATCC 25922, Enterococcus faecalis ATCC 29212, Streptococcus pneumonia ATCC 49619 and Acinetobacter baumanii ATCC 19606 were obtained from Microbiologics (St. Cloud, MN). E. faecalis ATCC 51575, ATCC 51299 and REMEL C99707 and E. faecium ATCC 51559 (MDR), REMEL IH79985 and REMEL C110914 were generously provided by the Laboratory of Pathology, University of Maryland Baltimore School of Medicine. Unless stated otherwise, chemicals and reagents were purchased from Sigma.
as §1

SMILES strings stand for the structures.

`CCc1ccc(-c2cc(/C=C/c3c[nH]c4ccccc34)[o+]c(-c3ccc(CC)cc3)c2)cc1.F[B-](F)(F)F` [6jc64-3] returned an Antibacterial activity (MIC) P. aeruginosa ATCC 27853 in the data set with P. aeruginosa ATCC 27853 of no less than 64 µg/mL. The Antibacterial activity (MIC) K. pneumoniae NR-15410 (KPC) in data set [1] was determined as 64 µg/mL. Also, the “Antibacterial activity (MIC) E. faecium F118 (VRE)” value in the data set on E. faecium F118 (VRE) came out at 8. Further, in data set [2], the Antibacterial activity (MIC) K. pneumoniae NR-15411 (KPC) worked out at 64 µg/mL. Besides, the Antibacterial activity (MIC) P. aeruginosa PA01 in the data set on P. aeruginosa PA01 was no less than 64 µg/mL. In the data set on E. aerogenes ATCC 13048, this molecule showed an Antibacterial activity (MIC) E. aerogenes ATCC 13048 of no less than 64 µg/mL. Also, the “Antibacterial activity (MIC) E. faecium EF1509 (VRE)” value with E. faecium EF1509 (VRE) turned out to be 8. Further, in the data set on P. aeruginosa X13273, the “Antibacterial activity (MIC) P. aeruginosa X13273” value is “>=64”. This molecule also showed an Antibacterial activity (MIC) S. aureus MRSA 1094 with S. aureus MRSA 1094 of 5.66 µg/mL. In data set [3], this molecule gave an Antibacterial activity (MIC) S. aureus HFH-30123 (MRSA) of 4 µg/mL. This molecule returned an Antibacterial activity (MIC) E. cloacae ATCC 13047 in the data set with E. cloacae ATCC 13047 of 64 µg/mL. For the same molecule, the “CC50% (72 h HeLa cells)” value in the data set on HeLa cells was 3.29. Also, the equilibrium dissociation constant (Kd) in data set [4] amounted to 4.92 ± 0.5 µM. In the data set with A. baumanii ATCC 19606, the “Antibacterial activity (MIC) A. baumanii ATCC 19606” value was “>=64”.
Molecule `Cc1ccc(-c2cc(/C=C/c3cc4c5c(c3)CCCN5CCC4)[o+]c(-c3ccc(C)c(C)c3)c2)cc1C.F[B-](F)(F)F` [6jc-69-3] had an Antibacterial activity (MIC) P. aeruginosa ATCC 27853 with P. aeruginosa ATCC 27853 of no less than 64 µg/mL. The Antibacterial activity (MIC) K. pneumoniae NR-15410 (KPC) in [1] is no less than 64 µg/mL. The “Antibacterial activity (MIC) E. faecium F118 (VRE)” value in the data set on E. faecium F118 (VRE) was determined as 4. For the same molecule, in data set [2], the Antibacterial activity (MIC) K. pneumoniae NR-15411 (KPC) was no less than 64 µg/mL. In the data set on P. aeruginosa PA01, this molecule gave an Antibacterial activity (MIC) P. aeruginosa PA01 of no less than 64 µg/mL. The Antibacterial activity (MIC) E. aerogenes ATCC 13048 in the data set on E. aerogenes ATCC 13048 was no less than 64 µg/mL. In the data set on E. faecium EF1509 (VRE), the “Antibacterial activity (MIC) E. faecium EF1509 (VRE)” value stood at 2.83. The “Antibacterial activity (MIC) P. aeruginosa X13273” value with P. aeruginosa X13273 is reported as “>=64”. The same molecule showed an Antibacterial activity (MIC) S. aureus MRSA 1094 with S. aureus MRSA 1094 of 4 µg/mL. In data set [3], this molecule showed an Antibacterial activity (MIC) S. aureus HFH-30123 (MRSA) of 4 µg/mL. The Antibacterial activity (MIC) E. cloacae ATCC 13047 in the data set with E. cloacae ATCC 13047 is no less than 64 µg/mL. Besides, the “CC50% (72 h HeLa cells)” value in the data set with HeLa cells is listed as “<.78125”. In [4], this molecule had a Kd of 0.6 ± 0.1 µM. In addition, the “Antibacterial activity (MIC) A. baumanii ATCC 19606” value with A. baumanii ATCC 19606 was “>=64”.
Take `C(=C\c1cc(-c2ccccc2)cc(-c2ccccc2)[o+]1)/c1cc2c3c(c1)CCCN3CCC2.F[B-](F)(F)F` [6jc-58]: in the data set on P. aeruginosa ATCC 27853, the Antibacterial activity (MIC) P. aeruginosa ATCC 27853 was determined as 64 µg/mL. The molecule also came in with an Antibacterial activity (MIC) K. pneumoniae NR-15410 (KPC) in data set [1] of 45.3 µg/mL. Further, the “Antibacterial activity (MIC) E. faecium F118 (VRE)” value in the data set on E. faecium F118 (VRE) was 4. The molecule further showed an Antibacterial activity (MIC) K. pneumoniae NR-15411 (KPC) in data set [2] of 64 µg/mL. Moreover, the Antibacterial activity (MIC) P. aeruginosa PA01 in the data set with P. aeruginosa PA01 stood at 64 µg/mL. In the data set on E. aerogenes ATCC 13048, this molecule gave an Antibacterial activity (MIC) E. aerogenes ATCC 13048 of 32 µg/mL. For the same molecule, in the data set with E. faecium EF1509 (VRE), the “Antibacterial activity (MIC) E. faecium EF1509 (VRE)” value is 4. Besides, the “Antibacterial activity (MIC) P. aeruginosa X13273” value in the data set on P. aeruginosa X13273 is recorded as 32. This molecule came in with an Antibacterial activity (MIC) S. aureus MRSA 1094 with S. aureus MRSA 1094 of 1.41 µg/mL. The Antibacterial activity (MIC) S. aureus HFH-30123 (MRSA) in data set [3] is 2 µg/mL. The molecule further came in with an Antibacterial activity (MIC) E. cloacae ATCC 13047 in the data set with E. cloacae ATCC 13047 of 64 µg/mL. In the data set with HeLa cells, the “CC50% (72 h HeLa cells)” value is given as “<.78125”. The Kd in data set [4] came out at 17 ± 4 µM. Moreover, the “Antibacterial activity (MIC) A. baumanii ATCC 19606” value with A. baumanii ATCC 19606 is recorded as 8.
Regarding `CN(C)c1ccc(/C=C/C=C/c2cc(-c3ccc(Cl)cc3)cc(-c3ccc(Cl)cc3)[o+]2)cc1.F[B-](F)(F)F` [6jc43-2], the Antibacterial activity (MIC) P. aeruginosa ATCC 27853 with P. aeruginosa ATCC 27853 was no less than 64 µg/mL. The Antibacterial activity (MIC) K. pneumoniae NR-15410 (KPC) in data set [1] is no less than 64 µg/mL. Also, the “Antibacterial activity (MIC) E. faecium F118 (VRE)” value in the data set on E. faecium F118 (VRE) is “>=64”. Besides, the Antibacterial activity (MIC) K. pneumoniae NR-15411 (KPC) in [2] was no less than 64 µg/mL. Moreover, the Antibacterial activity (MIC) P. aeruginosa PA01 in the data set on P. aeruginosa PA01 is no less than 64 µg/mL. This molecule also gave an Antibacterial activity (MIC) E. aerogenes ATCC 13048 with E. aerogenes ATCC 13048 of no less than 64 µg/mL. Moreover, the “Antibacterial activity (MIC) E. faecium EF1509 (VRE)” value with E. faecium EF1509 (VRE) came to 64. In the data set with P. aeruginosa X13273, the “Antibacterial activity (MIC) P. aeruginosa X13273” value is “>=64”. Also, the Antibacterial activity (MIC) S. aureus MRSA 1094 in the data set with S. aureus MRSA 1094 is no less than 64 µg/mL. This molecule came in with an Antibacterial activity (MIC) S. aureus HFH-30123 (MRSA) in data set [3] of no less than 64 µg/mL. For the same molecule, in the data set on E. cloacae ATCC 13047, the Antibacterial activity (MIC) E. cloacae ATCC 13047 is no less than 64 µg/mL. Besides, in the data set with HeLa cells, the “CC50% (72 h HeLa cells)” value is listed as greater than 32. Besides, in the data set with A. baumanii ATCC 19606, the “Antibacterial activity (MIC) A. baumanii ATCC 19606” value is on record as “>=64”.
